Columns and labels:
FGFR1 = target: T1, FGFR1 (Homo sapiens, UniProt P11362); test: FGFR1 kinase activity inhibition assay (LanthaScreen TR-FRET); format: biochemical; conditions: FGFR1 kinase, TR-FRET; read-out: IC50 (nM) FGFR1
T1 construct: cytoplasmic domain [398-822 (terminal) amino acids]; purchased Carna 08-133
How it was run: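 Emission ratio 520 nm/495 nm by TR-FRET after stopping reaction with 10 mM EDTA and 60 min incubation at 22°C. Inhibition normalized between no-enzyme (min) and DMSO (max) controls, then fitted to a four-parameter curve (Top, Bottom, HillSlope).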

FGFR3 = target: T2, FGFR3 (Homo sapiens, UniProt P22607); test: FGFR3 kinase activity inhibition assay (LanthaScreen TR-FRET); format: biochemical; conditions: for IC50: FGFR3 kinase, TR-FRET, read-out: IC50 (nM) FGFR3; for Selectivity (X) FGFR1/FGFR3: ratio of IC50 FGFR1/FGFR3, selectivity towards FGFR3
T2 construct: FGFR3's cytoplasmic domain [436-806 (terminal) amino acids]; purchased Carna 08-135
How it was run: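 Read-out is TR-FRET, with the 520 nm/495 nm emission ratio normalised to DMSO (max) and enzyme-free (min) controls. Enzyme was the FGFR3 cytoplasmic domain, residues 436-806. EDTA (10 mM) stopped the reaction, followed by 60 min at 22 °C before reading.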

T1 sequence (P11362 398-822): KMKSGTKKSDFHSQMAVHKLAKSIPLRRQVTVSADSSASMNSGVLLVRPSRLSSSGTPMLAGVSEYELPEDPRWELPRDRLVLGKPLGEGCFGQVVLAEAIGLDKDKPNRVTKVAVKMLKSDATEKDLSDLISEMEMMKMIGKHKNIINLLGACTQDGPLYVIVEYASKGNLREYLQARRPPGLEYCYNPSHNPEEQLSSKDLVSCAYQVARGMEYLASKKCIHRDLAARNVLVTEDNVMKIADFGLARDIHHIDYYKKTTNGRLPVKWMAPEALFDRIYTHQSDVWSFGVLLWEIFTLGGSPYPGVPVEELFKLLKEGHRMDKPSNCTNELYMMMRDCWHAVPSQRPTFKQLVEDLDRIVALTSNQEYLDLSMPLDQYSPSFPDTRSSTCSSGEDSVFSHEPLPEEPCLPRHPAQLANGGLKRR
T2 sequence (P22607 436-806): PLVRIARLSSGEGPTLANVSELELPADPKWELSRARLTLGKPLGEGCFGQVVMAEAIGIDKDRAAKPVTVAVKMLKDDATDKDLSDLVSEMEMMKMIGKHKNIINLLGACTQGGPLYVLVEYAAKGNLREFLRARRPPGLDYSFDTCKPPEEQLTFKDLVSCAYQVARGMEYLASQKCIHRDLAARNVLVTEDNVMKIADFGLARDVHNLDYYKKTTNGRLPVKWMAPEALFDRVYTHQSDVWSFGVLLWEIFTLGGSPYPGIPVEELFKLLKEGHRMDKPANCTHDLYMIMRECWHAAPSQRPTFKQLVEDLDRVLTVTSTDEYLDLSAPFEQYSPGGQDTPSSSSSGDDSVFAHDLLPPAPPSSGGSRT

Row | SMILES | IC50 (FGFR1) [nM] | IC50 (FGFR3) [nM] | Selectivity (X) FGFR1/FGFR3 (FGFR3) | Selectivity (X) FGFR4/FGFR3 (FGFR3; ratio of IC50 FGFR4/FGFR3, selectivity towards FGFR3)
1 | CC(Oc1ccc2[nH]nc(-c3cnn(C4CC(N(C)C(=O)C(C)(C)O)C4)c3)c2c1)c1cccc2nccnc12 (stereo not shown) [Example 197, 2-hydroxy-N,2-dimethyl-N-(3-(4-(5-(1-(quinoxalin-5-yl)ethoxy)-1H-indazol-3-yl)-1H-pyrazol-1-yl)cyclobutyl)prop anamide] | 10 to 100 | < 1 | B (B represents 20 ≤ multiple X<50) | –
2 | CC(Oc1ccc2[nH]nc(-c3cnn(C4CC(N(C)S(C)(=O)=O)C4)c3)c2c1)c1cccc2nccnc12 (stereo not shown) [Example 198, N-methyl-N-(3-(4-(5-(1-(quinoxalin-5-yl)ethoxy)-1H-indazol-3-yl)-1H-pyrazol-1-yl)cyclobutyl)methanesulfonamide] | 10 to 100 | < 1 | B (B represents 20 ≤ multiple X<50) | –
3 | CC(=O)N(C)C1CC(n2cc(-c3n[nH]c4ccc(OC(C)c5cccc6nccnc56)cc34)cn2)C1 (stereo not shown) [Example 199, N-methyl-N-(3-(4-(5-(1-(quinoxalin-5-yl)ethoxy)-1H-indazol-3-yl)-1H-pyrazol-1-yl)cyclobutyl)acet amide] | 10 to 100 | < 1 | A (A represents 1 ≤ multiple X<20) | –
4 | CC(Oc1ccc2[nH]nc(-c3cnn(CC4CC(=O)N(C)C4)c3)c2c1)c1cccc2nccnc12 (stereo not shown) [Example 200, 1-methyl-4-((4-(5-(1-(quinoxalin-5-yl)ethoxy)-1H-indazol-3-yl)-1H-pyrazol-1-yl)methyl)pyrrolidin-2-one] | 10 to 100 | 1 to 10 | B (B represents 20 ≤ multiple X<50) | –
5 | CC(Oc1ccc2[nH]nc(-c3cnn(C4CN(C(=O)C(C)(C)O)C4)c3)c2c1)c1cc(Cl)cc2ncccc12 (stereo not shown) [Example 206, 1-(3-(4-(5-(1-(7-chloroquinolin-5-yl)ethoxy)-1H-indazol-3-yl)-1H-pyrazol-1-yl)azetidin-1-yl)-2-hydroxy-2-methylpropan-1-one] | 10 to 100 | 1 to 10 | C (C represents 50 ≤ multiple X<100) | –
6 | CC(Oc1ccc2[nH]nc(-c3cnn(C4CN(C(=O)CO)C4)c3)c2c1)c1cc(Cl)cc2nccnc12 (stereo not shown) [Example 207, 1-(3-(4-(5-(1-(7-chloroquinoxalin-5-yl)ethoxy)-1H-indazol-3-yl)-1H-pyrazol-1-yl)azetidin-1-yl)-2-hydroxyethan-1-one] | 10 to 100 | < 1 | B (B represents 20 ≤ multiple X<50) | –
7 | CC(Oc1ccc2[nH]nc(-c3cnn(C4CN(C(=O)C(C)(C)N)C4)c3)c2c1)c1c(C(F)F)ccc2ncccc12 (stereo not shown) [Example 208, 2-amino-1-(3-(4-(5-(1-(6-(difluoromethyl)quinoline-5-yl)ethoxy)-1H-indazol-3-yl)-1H-pyrazol-1-yl)azetidin-1-yl)-2-methylpropan-1-one] | 10 to 100 | < 1 | B (B represents 20 ≤ multiple X<50) | –
8 | CC(Oc1ccc2[nH]nc(-c3cnn(C4CN(C(=O)C(C)(C)O)C4)c3)c2c1)c1cc(Cl)cc2nccnc12 (stereo not shown) [Example 209, 1-(3-(4-(5-(1-(7-chloroquinoxalin-5-yl)ethoxy)-1H-indazol-3-yl)-1H-pyrazol-1-yl)azetidin-1-yl)-2-hydroxy-2-methylpropan-1-one] | 10 to 100 | < 1 | B (B represents 20 ≤ multiple X<50) | –
9 | CC(Oc1ccc2[nH]nc(-c3cnn(C4CN(C(=O)C(C)(C)N)C4)c3)c2c1)c1cc(Cl)cc2ncccc12 (stereo not shown) [Example 211, 2-amino-1-(3-(4-(5-(1-(7-chloroquinolin-5-yl)ethoxy)-1H-indazol-3-yl)-1-pyrazol-1-yl)azetidin-1-yl)-2-methylpropan-1-one] | 10 to 100 | < 1 | B (B represents 20 ≤ multiple X<50) | –
10 | CC(Oc1ccc2[nH]nc(-c3cnn(C4CN(CC(N)=O)C4)c3)c2c1)c1cccc2nccnc12 (stereo not shown) [Example 214, 2-(3-(4-(5-(1-(quinoxalin-5-yl)ethoxy)-1H-indazol-3-yl)-1H-pyrazol-1-yl)azetidin-1-yl)acetamide] | 10 to 100 | < 1 | B (B represents 20 ≤ multiple X<50) | –
11 | Cc1cc(C(C)Oc2ccc3[nH]nc(-c4cnn(C5CN(C(=O)C(C)(C)N)C5)c4)c3c2)c2cccnc2c1 (stereo not shown) [Example 215, 2-amino-2-methyl-1-(3-(4-(5-(1-(7-methylquinolin-5-yl)ethoxy)-1H-indazol-3-yl)-1H-pyrazol-1-yl)azetidin-1-yl)propan-1-one] | 10 to 100 | < 1 | B (B represents 20 ≤ multiple X<50) | –
12 | Cc1ccc2ncccc2c1C(C)Oc1ccc2[nH]nc(-c3cnn(C4CN(C(=O)C(C)(C)O)C4)c3)c2c1 (stereo not shown) [Example 217, 2-hydroxy-2-methyl-1-(3-(4-(5-(1-(6-methylquinolin-5-yl)ethoxy)-1H-indazol-3-yl)-1H-pyrazol-1-yl)azetidin-1-yl)propan-1-one] | 10 to 100 | < 1 | C (C represents 50 ≤ multiple X<100) | –
13 | CC(Oc1ccc2[nH]nc(-c3cnn(C4CN(C(=O)C5CC5)C4)c3)c2c1)c1cccc2nccnc12 (stereo not shown) [Example 219, cyclopropyl(3-(4-(5-(1-(quinoxalin-5-yl)ethoxy)-1H-indazol-3-yl)-1H-pyrazol-1-yl)azetidin-1-yl)methanone] | 10 to 100 | < 1 | A (A represents 1 ≤ multiple X<20) | –
14 | CC(Oc1ccc2[nH]nc(-c3cnn(CCCS(C)(=O)=O)c3)c2c1)c1cc(Cl)cc2nccnc12 (stereo not shown) [Example 220, 7-chloro-5-(1-((3-(1-(3-(methylsulfonyl)propyl)-1H-pyrazol-4-yl)-1H-indazol-5-yl)oxy)ethyl)quinox aline] | 10 to 100 | < 1 | C (C represents 50 ≤ multiple X<100) | –

Further lines, results first:

Row | IC50 (FGFR1) [nM] | IC50 (FGFR3) [nM] | Selectivity (X) FGFR1/FGFR3 (FGFR3) | Selectivity (X) FGFR4/FGFR3 (FGFR3; ratio of IC50 FGFR4/FGFR3, selectivity towards FGFR3) | SMILES
15 | 1 to 10 | < 1 | A (A represents 1 ≤ multiple X<20) | A (A represents 1 ≤ multiple X<20) | CC(Oc1ccc2[nH]nc(-c3cnn(C)c3)c2c1)c1cccn2ncc(C#N)c12 (stereo not shown) [Example 186, 4-(1-((3-(1-methyl-1H-pyrazol-4-yl)-1H-indazol-5-yl)oxy)ethyl)py razolo[1,5-a]pyridine-3-carbonitrile]
16 | 10 to 100 | < 1 | B (B represents 20 ≤ multiple X<50) | – | Cc1cc(C(C)Oc2ccc3[nH]nc(-c4cnn(C5CN(C(=O)CO)C5)c4)c3c2)c2cccnc2c1 (stereo not shown) [Example 192, 2-hydroxy-1-(3-(4-(5-(1-(7-methylquinolin-5-yl)ethoxy)-1H-indazol-3-yl)-1-pyrazol-1-yl)azetidin-1-yl)ethan-1-one]
17 | 1 to 10 | < 1 | A (A represents 1 ≤ multiple X<20) | – | CNCC(=O)N1CC(n2cc(-c3n[nH]c4ccc(OC(C)c5cccc6nccnc56)cc34)cn2)C1 (stereo not shown) [Example 193, 2-(methylamino)-1-(3-(4-(5-(1-(quinoxalin-5-yl)ethoxy)-1H-indazol-3-yl)-1H-pyrazol-1-yl)azetidin-1-yl)ethan-1-one]
18 | 10 to 100 | < 1 | B (B represents 20 ≤ multiple X<50) | – | CC(Oc1ccc2[nH]nc(-c3cnn(C4CC(N(C)C(=O)C(C)(C)N)C4)c3)c2c1)c1cccc2nccnc12 (stereo not shown) [Example 196, 2-amino-N,2-dimethyl-N-(3-(4-(5-(1-(quinoxalin-5-yl)ethoxy)-1H-indazol-3-yl)-1H-pyrazol-1-yl)cyclobutyl)propanamide]
19 | 1 to 10 | < 1 | A (A represents 1 ≤ multiple X<20) | – | CC(Oc1ccc2[nH]nc(-c3cnn(C4CN(C(=O)NC5CC5)C4)c3)c2c1)c1cccc2nccnc12 (stereo not shown) [Example 201, N-cyclopropyl-3-(4-(5-(1-(quinoxalin-5-yl)ethoxy)-1H-indazol-3-yl)-1H-pyrazol-1-yl)azetidine-1-carboxamide]
20 | 1 to 10 | < 1 | A (A represents 1 ≤ multiple X<20) | – | CC(Oc1ccc2[nH]nc(-c3cnn(C4CC(S(C)(=N)=O)C4)c3)c2c1)c1cccc2nccnc12 (stereo not shown) [Example 202, imino(methyl)(3-(4-(5-(1-(quinoxalin-5-yl)ethoxy)-1H-indazol-3-yl)-1H-pyrazol-1-yl)cyclobutyl)-sulfanone]
21 | 1 to 10 | < 1 | B (B represents 20 ≤ multiple X<50) | – | CC(Oc1ccc2[nH]nc(-c3cnn(C4CN(C(=O)C5(N)CC5)C4)c3)c2c1)c1cccc2nccnc12 (stereo not shown) [Example 205, (1-aminocyclopropy 1)(3-(4-(5-(1-(quinoxalin-5-yl)ethoxy)-1H-indazol-3-yl)-1H-pyrazol-1-yl)azetidin-1-yl)methanone]
22 | 1 to 10 | < 1 | A (A represents 1 ≤ multiple X<20) | – | CC(Oc1ccc2[nH]nc(-c3cnn(C4CN(C(=O)C(C)(C)N)C4)c3)c2c1)c1cc(Cl)cc2nccnc12 (stereo not shown) [Example 210, 2-amino-1-(3-(4-(5-(1-(7-chloroquinoxalin-5-yl)ethoxy)-1H-indazol-3-yl)-1-pyrazol-1-yl)azetidin-1-yl)-2-methylpropan-1-one]
23 | 1 to 10 | < 1 | A (A represents 1 ≤ multiple X<20) | – | CNC(C)(C)C(=O)N1CC(n2cc(-c3n[nH]c4ccc(OC(C)c5cccc6nccnc56)cc34)cn2)C1 (stereo not shown) [Example 216, 2-methyl-2-(methylamino)-1-(3-(4-(5-(1-(quinoxalin-5-yl)ethoxy)-1H-indazol-3-yl)-1H-pyrazol-1-yl)azetidin-1-yl)propan-1-one]

— patent EP4644383A1 (Jiangsu Yahong Meditech Co., Ltd., priority 2022, dated 2024)
